Experimental data reported in patent publication US9199940B2, “Crystalline forms and processes for the preparation of phenyl-pyrazoles useful as modulators of the 5-HT2A serotonin receptor” (Arena Pharmaceuticals, Inc., priority 2006, dated 2015).

Test: dynamic vapor sorption (DVS) scan of crystalline forms
Assay type: physicochemical
Conditions: up to 95% relative humidity
Source text: FIG. 4 depicts a dynamic vapor sorption (DVS) scan for crystalline Form I of Compound 7 of the invention (VTI dynamic vapor sorption analyzer).
FIG. 8 depicts a dynamic vapor sorption (DVS) scan for crystalline Form I Compound 9 of the invention (VTI dynamic vapor sorption analyzer).

DVS hygroscopicity: FIG. 4: Non-hygroscopic;
SMILES: COc1cccc(C(=O)Nc2ccc(OCCN3CCOCC3)c(-c3ccnn3C)c2)c1 [Compound 7 Form I, 4-(2-(4-(3-methoxybenzamido)-2-(1-methyl-1H-pyrazol-5-yl)phenoxy)ethyl)morpholin-4-ium chloride]
